In assay [1] the test system is SHH expression. Briefly: Pancreatic SHH mRNA expression (qPCR) in P48-Cre; LSL-K-rasG12D mice. The conditions noted are these: 60 mg/kg/day IP x 10 days, mice 7-9 months old, vs untreated age-matched mice, n=1/group. Format: in vivo, mouse. How it is done: FIG. 19. ATM inhibits induction of SHH expression in mPanINs of P48-Cre; LSL-K-ras^G12D mice. Three older P48-Cre; LSL-K-ras^G12D mice (7-9 months of age) were administered ATM (60 mg/kg/day) by IP injection for 10 days. mRNA was isolated from pancreata from treated, and untreated, age-matched P48-Cre; LSL-K-ras^G12D mice and analyzed by qPCR analysid for expression of SHH. n=1/group.
(§1) ATM reduced mPanIN proliferation and SHH expression. In order to investigate the potential therapeutic role of ATM in pancreatic cancer, acute ATM treatment (60 mg/kg/day×10 days) of older P48-Cre; LSL-K-rasG12D mice (PC/+, Ras/+; 7-9 months old, they have already developed PanINs and adenomas) was performed. […] These same mice were analyzed for pancreatic expression of SHH. SHH increased in expression in P48-Cre; LSL-K-rasG12D mice, similar to PKCι.

The test system of assay [2] is mPanINs of P48-Cre; LSL-K-rasG12D mice. Kind of assay: mPanIN proliferation by BrdU incorporation (IHC) in P48-Cre; LSL-K-rasG12D mice. Format: in vivo, mouse. The note with it: 60 mg/kg/day IP x 10 days, mice 7-9 months old, vs untreated age-matched mice, n=3/group. Here is the method: FIG. 18. ATM inhibits proliferation of mPanINs in P48-Cre; LSL-K-ras^G12D mice. Three older P48-Cre; LSL-K-ras^G12D mice (7-9 months of age) were administered ATM (60 mg/kg/day) by IP injection for 10 days. Mice were injected with BrdU prior to sacrifice. Pancreata were isolated and analyzed by IHC for BrdU incorporation, as an indicator of the proliferative activity of the tissue. BrdU incorporation was compared to untreated, age-matched P48-Cre; LSL-K-ras^G12D mice. n=3/group.
as §1
In general terms: Incorporation of labelled thymidine or its analogues reports DNA synthesis.

Assay [3] has as its system Panc-1 cells. Kind of assay: In vitro invasion through Matrigel matrix. Format: cell-based, human. The conditions noted are these: 48 hour pre-incubation. Here is the method:
(§2) FIG. 13. Aurothiomalate (ATM) inhibits PDAC cells soft agar colony formation and invasion. A) Dose response curves to the growth inhibitory effects of ATM on soft agar colony formation in Panc-1, Capan-1, and MiaPaCa-2 human pancreatic cancer cells. B) Panc-1 cells were pre-incubated in increasing concentrations of ATM and then assayed for in vitro invasion through Matrigel matrix.
(§3) Three PDAC cell lines (Panc-1, Capan-1, and Miapaca-2), expressing varying amounts of PKCι (FIG. 13), were assayed for the ability to form colonies in soft agar (anchorage-independent growth) in the presence of increasing concentrations of aurothiomalate (ATM, FIG. 13A).

The test system of assay [4] is Panc-1, Capan-1, and MiaPaCa-2 human pancreatic cancer cells. Briefly: Soft agar colony formation (anchorage-independent growth). Format: cell-based. The note with it: range over three PDAC cell lines (Panc-1, Capan-1, Miapaca-2); increasing concentrations. How it is done:
as §2
Panc-1 and MiaPaCa-2 cells (5×10^3) were plated in soft agar and assessed for anchorage-independent growth as described elsewhere (Regala et al., J. Biol. Chem., 280:31109-15 (2005)).
as §3

pIC50: −log10 of the molar value.

For orientation: pIC50 means the negative decadic logarithm of the IC50, by convention in mol/L. High values mean a small IC50, low ones a large IC50.

On to `O=C(O)CC([S-])C(=O)O.[Au+]` (stereo not shown) [ATM, aurothiomalate], for which the “pancreatic SHH expression” value in assay [1] is reported as “significantly reduced”. Further, the “proliferation in the mPanINs (BrdU incorporation)” value in assay [2] is given as “significantly reduced”. For the same compound, the pIC50 in assay [3] is 5.13; in assay [4] it was 4.21 to 4.70.

The values are drawn from patent publication US20110190390A1, “METHODS AND MATERIALS FOR TREATING PANCREATIC CANCER” (priority 2010, published 2011).
